Here are results for three compounds from publication PMC11642448, “Pheromone-Binding Protein 1 Performs a Dual Function for Intra- and Intersexual Signaling in a Moth” (International Journal of Molecular Sciences, 2024).

The target in assay [1] is T1, AaenPBP1 (Agriphila aeneociliella, UniProt Z9SOT8HEE8).
T1 construct: mature protein without signal peptide (1-23 of 166 aa ORF); pET-15b with SUMO tag, His-tag Ni-NTA purification, E. coli BL21(DE3)
T1 sequence (Z9SOT8HEE8 24-166): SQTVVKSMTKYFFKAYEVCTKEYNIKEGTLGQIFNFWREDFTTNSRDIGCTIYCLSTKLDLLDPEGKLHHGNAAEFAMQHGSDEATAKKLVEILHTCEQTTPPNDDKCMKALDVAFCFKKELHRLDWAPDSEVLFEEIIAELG
Nature of the assay: fluorescence titration, Scatchard analysis. It counts as binding.

For assay [2], the target named is T1, AaenPBP1. The assay is described as follows: competitive fluorescence binding (1-NPN displacement).

Each structure is given as a SMILES string.

As for `c1ccc(Nc2cccc3ccccc23)cc1` [1-NPN], binding on AaenPBP1 [1] was characterised by a dissociation constant (Kd) of 4.6 µM.

On AaenPBP1 [2], `CCCCCC/C=C\CCCCCCCCOC(C)=O` [(Z)-9-Hexadecenyl acetate] returned a Ki of 1.72 µM.

For `CCCCCCCCC=O` [1-Nonanal], the Ki at AaenPBP1 [2] turned out to be 7.04 µM.

One may read the Kd as a measure of binding affinity in units of concentration. High values mean weaker binding, low ones tighter binding. Broadly, the Ki is the dissociation constant of the complex between target and ligand, obtained from inhibition or displacement. Lower therefore signals a stronger hold on the target.
